Tests used:
OATP1B1*1a = OATP1B1*1a (Homo sapiens, UniProt Q9Y6L6); assay: Cell-based uptake transporter assay, TransportoCells OATP1B1*1a, luminescence; settings: various concentrations, 30 min 37° C.; FIG. 13
Protocol: (§1) Stock solutions of each compound were prepared as 10 mM in methanol. Corning TransportoCells OATP1B1*1a, OATP1B3, and Control Cells were used as cell model for cell-based uptake transporter assay. Cells were cultured according to manufacturer's recommendations. Briefly, cells were thawed from liquid nitrogen storage and cultured in Dulbecco's Modified Eagle's medium supplemented with fetal bovine serum (FBS), MEM non-essential amino acid, and sodium butyrate. Cells were then plated in Corning 96-well, poly-D-Lysine white/clear plate at 100,000 cells/well in 100 μl medium and incubated for 24 hours at 37° C. with 5% CO2.
(§2) The uptake transporter assay was carried out by adding 100 μl of Hank's balanced salt solution containing 10 μM of one of the compounds to all the cells and incubated at 37° C. for 30 minutes. […] After a 20 minute incubation at room temperature (20°-25° C.), luminescence was detected on a GloMax® luminometer. […]
(§3) The uptake transporter assay was carried out by adding 100 μl of Hank's balanced salt solution containing various concentrations (See FIG. 13) of PBI-5651 to all the cells and incubated at 37° C. for 30 minutes. […] After a 20 minute incubation at room temperature (20°-25° C.), luminescence was detected on a GloMax® luminometer.

OATP1B3 = OATP1B3 (Homo sapiens, UniProt Q9NPD5); assay: Cell-based uptake transporter assay, TransportoCells OATP1B3, luminescence; settings: various concentrations, 30 min 37° C.; FIG. 13
Protocol: as §1, §2, §3

OATP1B3, sequence (Q9NPD5 whole entry): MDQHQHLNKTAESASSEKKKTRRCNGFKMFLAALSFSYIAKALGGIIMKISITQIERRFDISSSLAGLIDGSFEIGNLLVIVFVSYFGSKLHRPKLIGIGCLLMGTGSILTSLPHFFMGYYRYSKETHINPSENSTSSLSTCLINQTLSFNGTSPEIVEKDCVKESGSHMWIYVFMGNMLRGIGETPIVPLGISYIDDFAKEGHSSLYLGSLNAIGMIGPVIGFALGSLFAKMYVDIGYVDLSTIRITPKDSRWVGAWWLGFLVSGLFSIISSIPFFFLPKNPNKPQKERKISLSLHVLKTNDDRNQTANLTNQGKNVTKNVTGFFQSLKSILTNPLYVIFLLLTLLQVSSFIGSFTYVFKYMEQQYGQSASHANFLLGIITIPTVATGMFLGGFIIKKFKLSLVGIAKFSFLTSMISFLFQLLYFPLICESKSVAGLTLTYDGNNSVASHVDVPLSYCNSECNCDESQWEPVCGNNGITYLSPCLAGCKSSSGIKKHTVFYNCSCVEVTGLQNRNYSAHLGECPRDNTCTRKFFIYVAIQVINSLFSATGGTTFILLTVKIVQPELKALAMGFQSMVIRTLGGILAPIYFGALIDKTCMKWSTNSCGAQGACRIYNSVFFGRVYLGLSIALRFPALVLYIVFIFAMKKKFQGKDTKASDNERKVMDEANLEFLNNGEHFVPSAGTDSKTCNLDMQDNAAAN

CC1=C(C)C(=O)C(C(C)(C)CC(=O)N(C)CCN(CCOCCOCCC(=O)NCCCCC(NC(=O)CC[C@@H](C)[C@H]2CC[C@H]3[C@@H]4[C@@H](O)C[C@@H]5C[C@H](O)CC[C@]5(C)[C@H]4CC[C@]23C)C(=O)O)C(=O)Oc2ccc3nc(C4=NC(C(=O)O)CS4)sc3c2)=C(C)C1=O (stereo partly drawn) [PBI-5651, 2-(6-((((20R)-15-carboxy-20-((3R,5S,7S,8R,9S,10S,13R,14S,17R)-3,7-dihydroxy-10,13-dimethylhexadecahydro-1H-cyclopenta[a]phenanthren-17-yl)-9,17-dioxo-3,6-dioxa-10,16-diazahenicosyl)(2-(N,3-dimethyl-3-(2,4,5-trimethyl-3,6-dioxocyclohexa-1,4-dien-1-yl)butanamido)ethyl)carbamoyl)oxy)benzo[d]thiazol-2-yl)-4,5-dihydrothiazole-4-carboxylic acid]
response of luminescence (RLU) to compound concentration (OATP1B1*1a): dynamic response of luminescence | response of luminescence (RLU) to compound concentration (OATP1B3): dynamic response of luminescence
